In brackets after ≈: the same amount, converted by molar mass. Several values for one entry are separate records, joined by “and”; a condition that tells them apart may be missing. Equal entries are not always repeated.
How the values were obtained:
Candida albicans [1] = assay: MIC testing (CLSI M27-A3); assay type: cell-based; parameters: MIC: unit not given beside the values
Candida albicans [2] = assay: MFC determination; assay type: cell-based
C. glabrata strains [3] = assay: MIC testing (CLSI M27-A3); assay type: cell-based; parameters: MIC: unit not given beside the values
C. glabrata strains [4] = assay: MFC determination; assay type: cell-based; parameters: MFC: unit not given beside the values
C. krusei strains = assay: MIC testing (CLSI M27-A3); assay type: cell-based
C. parapsilosis = assay: MIC testing (CLSI M27-A3); assay type: cell-based; parameters: MIC: unit not given beside the values
C. tropicalis [5] = assay: MIC testing (CLSI M27-A3); assay type: cell-based
C. tropicalis [6] = assay: MFC determination; assay type: cell-based
all Candida strains [7] = assay: MIC testing (CLSI M27-A3), summary; assay type: cell-based
all Candida strains [8] = assay: MFC determination, summary; assay type: cell-based
Cr. neoformans strains = assay: MIC testing (CLSI M27-A3, YNB, 72 h); assay type: cell-based, Cryptococcus neoformans
[9] = test system: individual Aspergillus spp. (Table 12, species not named); assay: MIC testing (CLSI M38-A2), Table 12; assay type: cell-based; conditions: Aspergillus sp. of Table 12, caspofungin read as MEC
[10] = test system: individual Aspergillus spp. (Table 12, species not named); assay: MFC determination, Table 12; assay type: cell-based; conditions: Aspergillus sp. of Table 12
[11] = test system: individual Aspergillus spp. (Table 13, species not given); assay: MIC testing (CLSI M38-A2), Table 13; assay type: cell-based; conditions: Aspergillus sp. of Table 13, caspofungin read as MEC
[12] = test system: individual Aspergillus spp. (Table 14, species not named); assay: MIC testing (CLSI M38-A2), Table 14; assay type: cell-based; conditions: Aspergillus sp. of Table 14, caspofungin read as MEC
[13] = test system: individual Aspergillus spp. (Table 14, species not named); assay: MFC determination, Table 14; assay type: cell-based; conditions: Aspergillus sp. of Table 14
[14] = test system: individual Aspergillus spp. (Table 15, species not named); assay: MIC testing (CLSI M38-A2), Table 15; assay type: cell-based; conditions: Aspergillus sp. of Table 15, caspofungin read as MEC
[15] = test system: all Aspergillus strains tested; assay: MIC testing (CLSI M38-A2), summary; assay type: cell-based; conditions: caspofungin read as MEC
[16] = test system: all Aspergillus strains tested; assay: MFC determination, summary; assay type: cell-based
Fusarium strains = assay: MIC testing (CLSI M38-A2), Table 17; assay type: cell-based, Fusarium spp.; conditions: Fusarium strains (Table 17)
[17] = test system: Fusarium strains (Table 18); assay: MIC testing (CLSI M38-A2), Table 18; assay type: cell-based, Fusarium spp.
Penicillium strains = assay: MIC testing (CLSI M38-A2); assay type: cell-based, Penicillium spp.; conditions: Penicillium
C. albicans SC5314 = assay: In vitro activity (MIC) against the infecting strain, Example 18; assay type: cell-based, Candida albicans; conditions: Candida albicans, read-out: MIC
[18] = individual C. albicans strain with elevated MICs to non-polyene comparators (Table 22), listed as Flu
[19] = C. tropicalis strains, in µg/mL

Q: `OC(Cn1cncn1)(Cn1cncn1)c1ccc(F)cc1F` [Fluconazole, fluconazole] was tested. Which “MIC Range” value (Candida albicans [1]; Fluconazole-susceptible C. albicans n = 13, in µg/mL) did it give?
A: The value was 0.125-0.5.

Q: And the MIC50 (Candida albicans [1]; Fluconazole-susceptible C. albicans n = 13, inhibits 50% of strains)?
A: Its MIC50 is 0.25 µg/mL (≈ 0.816 µM).

Q: And the MIC90 (Candida albicans [1]; Fluconazole-susceptible C. albicans n = 13, inhibits 90% of strains)?
A: Its MIC90 is 0.25 µg/mL (≈ 0.816 µM).

Q: What about the MIC (Candida albicans [1]; [18]) of the same compound?
A: The MIC was 32 (2×) and >32 (4×) and >64.

Q: What about the “MFC Range” value (Candida albicans [2]; Fluconazole-resistant C. albicans n = 7, in µg/mL) of the same compound?
A: Its value is greater than 32.

Q: And the MFC50 (Candida albicans [2]; Fluconazole-susceptible C. albicans n = 13, kills 50% of strains)?
A: The MFC50 was greater than 32 µg/mL.

Q: What about the MFC90 (Candida albicans [2]; Fluconazole-susceptible C. albicans n = 13, kills 90% of strains) of the same compound?
A: The MFC90 was greater than 32 µg/mL.

Q: And the MFC (Candida albicans [2]; [18])?
A: Its MFC is >32 (6×) and >64.

Q: What about the MIC50 (C. glabrata strains [3]; C. glabrata, inhibits 50% of strains) of the same compound?
A: The MIC50 was 8 µg/mL (≈ 26.1 µM).

Q: And the MIC90 (C. glabrata strains [3]; C. glabrata, inhibits 90% of strains)?
A: Its MIC90 is greater than 64 µg/mL.

Q: And the MIC (C. glabrata strains [3]; individual C. glabrata strain with elevated MICs to non-polyene comparators (Table 22), listed as Flu)?
A: Its MIC is 32 and 2 and >64 (2×) and 8 and 64.

Q: And the “MFC Range” value (C. glabrata strains [4]; C. glabrata strains, in µg/mL)?
A: The value was greater than 64.

Q: And the MFC50 (C. glabrata strains [4]; C. glabrata, kills 50% of strains)?
A: Its MFC50 is greater than 64 µg/mL.

Q: What about the MFC90 (C. glabrata strains [4]; C. glabrata, kills 90% of strains) of the same compound?
A: Its MFC90 is greater than 64 µg/mL.

Q: And the MFC (C. glabrata strains [4]; individual C. glabrata strain with elevated MICs to non-polyene comparators (Table 22), in µg/mL)?
A: Its MFC is greater than 64.

Q: What about the “MIC Range” value (C. krusei strains; C. krusei strains, in µg/mL) of the same compound?
A: The value was 2-32.

Q: And the MIC50 (C. krusei strains; C. krusei, inhibits 50% of strains)?
A: Its MIC50 is 16 µg/mL (≈ 52.2 µM).

Q: And the MIC90 (C. krusei strains; C. krusei, inhibits 90% of strains)?
A: Its MIC90 is 32 µg/mL (≈ 104 µM).

Q: What about the MIC (C. krusei strains; individual C. krusei strain with elevated MICs to non-polyene comparators (Table 22)) of the same compound?
A: The MIC was 16 µg/mL (≈ 52.2 µM).

Q: What about the MIC50 (C. parapsilosis; C. parapsilosis, inhibits 50% of strains) of the same compound?
A: Its MIC50 is 0.5 µg/mL (≈ 1.63 µM).

Q: And the MIC90 (C. parapsilosis; C. parapsilosis, inhibits 90% of strains)?
A: Its MIC90 is 0.5 µg/mL (≈ 1.63 µM).

Q: And the MIC (C. parapsilosis; individual C. parapsilosis strain with elevated MICs to non-polyene comparators (Table 22), listed as Flu, in µg/mL)?
A: Its MIC is 0.25 and 0.5 and 1.

Q: What about the “MIC Range” value (C. tropicalis [5]; [19]) of the same compound?
A: Its value is 0.25-2.

Q: What about the MIC50 (C. tropicalis [5]; C. tropicalis, inhibits 50% of strains) of the same compound?
A: Its MIC50 is 0.25 µg/mL (≈ 0.816 µM).

Q: What about the MIC90 (C. tropicalis [5]; C. tropicalis, inhibits 90% of strains) of the same compound?
A: Its MIC90 is 0.5 µg/mL (≈ 1.63 µM).

Q: And the “MFC Range” value (C. tropicalis [6]; [19])?
A: The value was greater than 64.

Q: What about the MFC50 (C. tropicalis [6]; C. tropicalis, kills 50% of strains) of the same compound?
A: Its MFC50 is greater than 64 µg/mL.

Q: And the MFC90 (C. tropicalis [6]; C. tropicalis, kills 90% of strains)?
A: The MFC90 was greater than 64 µg/mL.

Q: What about the MIC50 (all Candida strains [7]; inhibits 50% of strains) of the same compound?
A: Its MIC50 is 0.5 µg/mL (≈ 1.63 µM).

Q: And the MIC90 (all Candida strains [7]; inhibits 90% of strains)?
A: Its MIC90 is greater than 32 µg/mL.

Q: What about the MFC50 (all Candida strains [8]; kills 50% of strains) of the same compound?
A: Its MFC50 is greater than 32 µg/mL.

Q: What about the MFC90 (all Candida strains [8]; kills 90% of strains) of the same compound?
A: The MFC90 was greater than 32 µg/mL.

Q: What about the “MIC Range” value (Cr. neoformans strains; Cr. neoformans strains, 72 h, in µg/mL) of the same compound?
A: The value was <0.06-16.

Q: What about the MIC50 (Cr. neoformans strains; Cr. neoformans, inhibits 50% of strains) of the same compound?
A: Its MIC50 is 2 µg/mL (≈ 6.53 µM).

Q: And the MIC90 (Cr. neoformans strains; Cr. neoformans, inhibits 90% of strains)?
A: Its MIC90 is 8 µg/mL (≈ 26.1 µM).

Q: What about the MIC50 ([9]; inhibits 50% of strains) of the same compound?
A: Its MIC50 is greater than 64 µg/mL.

Q: What about the MIC90 ([9]; inhibits 90% of strains) of the same compound?
A: Its MIC90 is greater than 64 µg/mL.

Q: What about the MFC Range [10] of the same compound?
A: The MFC Range was greater than 64 µg/mL.

Q: And the MFC50 ([10]; kills 50% of strains)?
A: Its MFC50 is greater than 64 µg/mL.

Q: And the MFC90 ([10]; kills 90% of strains)?
A: The MFC90 was greater than 64 µg/mL.

Q: And the “MIC Range” value ([11]; in µg/mL)?
A: Its value is 64.

Q: And the MIC50 ([11]; inhibits 50% of strains)?
A: Its MIC50 is 64 µg/mL (≈ 209 µM).

Q: And the MIC90 ([11]; inhibits 90% of strains)?
A: The MIC90 was 64 µg/mL (≈ 209 µM).

Q: What about the MIC50 ([12]; inhibits 50% of strains) of the same compound?
A: Its MIC50 is greater than 64 µg/mL.

Q: What about the MIC90 ([12]; inhibits 90% of strains) of the same compound?
A: The MIC90 was greater than 64 µg/mL.

Q: What about the MFC Range [13] of the same compound?
A: The MFC Range was greater than 64 µg/mL.

Q: What about the MFC50 ([13]; kills 50% of strains) of the same compound?
A: The MFC50 was greater than 64 µg/mL.

Q: And the MFC90 ([13]; kills 90% of strains)?
A: Its MFC90 is greater than 64 µg/mL.

Q: What about the MIC50 ([14]; inhibits 50% of strains) of the same compound?
A: Its MIC50 is 64 µg/mL (≈ 209 µM).

Q: What about the MIC90 ([14]; inhibits 90% of strains) of the same compound?
A: Its MIC90 is greater than 64 µg/mL.

Q: And the MIC50 ([15]; inhibits 50% of strains)?
A: Its MIC50 is greater than 64 µg/mL.

Q: What about the MIC90 ([15]; inhibits 90% of strains) of the same compound?
A: The MIC90 was greater than 64 µg/mL.

Q: And the MFC Range [16]?
A: Its MFC Range is greater than 64 µg/mL.

Q: And the MFC50 ([16]; kills 50% of strains)?
A: The MFC50 was greater than 64 µg/mL.

Q: What about the MFC90 ([16]; kills 90% of strains) of the same compound?
A: The MFC90 was greater than 64 µg/mL.

Q: What about the MIC50 (Fusarium strains; inhibits 50% of strains) of the same compound?
A: Its MIC50 is greater than 64 µg/mL.

Q: And the MIC90 (Fusarium strains; inhibits 90% of strains)?
A: Its MIC90 is greater than 64 µg/mL.

Q: What about the “MIC Range” value ([17]; in µg/mL) of the same compound?
A: The value was greater than 32.

Q: What about the MIC50 ([17]; inhibits 50% of strains) of the same compound?
A: Its MIC50 is greater than 32 µg/mL.

Q: What about the MIC90 ([17]; inhibits 90% of strains) of the same compound?
A: Its MIC90 is greater than 32 µg/mL.

Q: And the MIC50 (Penicillium strains; inhibits 50% of strains)?
A: Its MIC50 is greater than 64 µg/mL.

Q: What about the MIC90 (Penicillium strains; inhibits 90% of strains) of the same compound?
A: Its MIC90 is greater than 64 µg/mL.

Q: And the MIC (C. albicans SC5314)?
A: The MIC was 0.25 µg/mL (≈ 0.816 µM).

From patent US20230138395A1, “PHARMACEUTICAL COMPOSITIONS OF A THERAPEUTIC POLYENE MACROLIDE AND METHODS OF THEIR USE” (priority 2020, published 2023)
